# Assay results as given in patent US8263606B2 (Xenon Pharmaceuticals Inc., priority 2008, dated 2012).
# Assays:
# CYP3A4 = CYP3A4 (Homo sapiens, UniProt P08684); assay: Cytochrome P450 (CYP450) Inhibition Assay, CYP3A4 (Vivid fluorescence, BOMCC substrate); conditions: for inhibition at 10 µM: human, P450 Baculosomes (recombinant CYP3A4), probe BOMCC (Vivid substrate)
# sodium channel = assay: Guanidine influx assay (14C-guanidine radiotracer flux, in vitro); type: cell-based, human or rat; conditions: guanidine influx assay using a known cell line that expresses a sodium channel; activity level class
# Text: This example describes an in vitro assay for testing and profiling test agents against human or rat sodium channels stably expressed in cells of either an endogenous or recombinant origin. The assay is also useful for determining the IC50 of a sodium channel blocking compound. The assay is based on the guanidine flux assay described by Reddy, N. L., et al., J. Med. Chem. (1998), 41(17):3298-302.
# The guanidine influx assay is a radiotracer flux assay used to determine ion flux activity of sodium channels in a high-throughput microplate-based format. The assay uses ^14C-guanidine hydrochloride in combination with various known sodium channel modulators, to assay the potency of test agents. Potency is determined by an IC50 calculation. Selectivity is determined by comparing potency of the compound for the channel of interest to its potency against other sodium channels (also called ‘selectivity profiling’).
# Each of the test agents is assayed against cells that express the channels of interest. Voltage gated sodium channels are either TTX sensitive or insensitive. This property is useful when evaluating the activities of a channel of interest when it resides in a mixed population with other sodium channels. The following Table 1 summarizes cell lines useful in screening for a certain channel activity in the presence or absence of TTX.
# It is also possible to employ recombinant cells expressing these sodium channels. Cloning and propagation of recombinant cells are known to those skilled in the art (see, for example, Klugbauer, N, et al., EMBO J. (1995), 14(6):1084-90; and Lossin, C., et al., Neuron (2002), 34, pp. 877-884).
# Cells expressing the channel of interest are grown according to the supplier or in the case of a recombinant cell in the presence of selective growth media such as G418 (Gibco/Invitrogen). The cells are disassociated from the culture dishes with an enzymatic solution (Ix) Trypsin/EDTA (Gibco/Invitrogen) and analyzed for density and viability using haemocytometer (Neubauer). Disassociated cells are washed and resuspended in their culture media then plated into Scintiplates (Beckman Coulter Inc.) (approximately 100,000 cells/well) and incubated at 37° C./5% CO2 for 20-24 hours. After an extensive wash with Low sodium HEPES-buffered saline solution (LNHBSS) (150 mM Choline Chloride, […] (Sigma), 1 mM Calcium Chloride, 5 mM Potassium Chloride, 1 mM Magnesium Chloride, 10 mM Glucose) agents diluted with LNHBSS are added to each well. (Varying concentrations of test agent may be used). The activation/radiolabel mixture contains aconitine (Sigma) to increase the percentage of time that the sodium channels are open, and ^14C-guanidine hydrochloride (ARC) to measure flux through the voltage-gated sodium channels.
# After loading the cells with test agent and activation/radiolabel mixture, the Scintiplates are incubated at ambient temperature. Following the incubation, the Scintplates are extensively washed with LNHBSS supplemented with guanidine (Sigma). The Scintiplates are dried and then counted using a Wallac MicroBeta TriLux (Perkin-Elmer Life Sciences). The ability of the test agent to block sodium channel activity is determined by comparing the amount of ^14C-guanidine present inside the cells expressing the different sodium channels.
# The IC50 value of a test agent for a specific sodium channel may be determined using the above general method. […] Typically the mid-point concentration of test agent is set at 1 μM, and sequential concentrations of half dilutions greater or smaller are applied (e.g. 0.5 μM; 5 μM and 0.25 μM; 10 μM and 0.125 μM; 20 μM etc.). The IC50 curve is calculated using the 4 Parameter Logistic Model or Sigmoidal Dose-Response Model formula (fit=(A+((B−A)/(1+((C/x)^D)))).
# The fold selectivity, factor of selectivity or multiple of selectivity, is calculated by dividing the IC50 value of the test sodium channel by the reference sodium channel, for example, Nav1.5. […]
# CYP3A4, sequence (P08684 whole entry): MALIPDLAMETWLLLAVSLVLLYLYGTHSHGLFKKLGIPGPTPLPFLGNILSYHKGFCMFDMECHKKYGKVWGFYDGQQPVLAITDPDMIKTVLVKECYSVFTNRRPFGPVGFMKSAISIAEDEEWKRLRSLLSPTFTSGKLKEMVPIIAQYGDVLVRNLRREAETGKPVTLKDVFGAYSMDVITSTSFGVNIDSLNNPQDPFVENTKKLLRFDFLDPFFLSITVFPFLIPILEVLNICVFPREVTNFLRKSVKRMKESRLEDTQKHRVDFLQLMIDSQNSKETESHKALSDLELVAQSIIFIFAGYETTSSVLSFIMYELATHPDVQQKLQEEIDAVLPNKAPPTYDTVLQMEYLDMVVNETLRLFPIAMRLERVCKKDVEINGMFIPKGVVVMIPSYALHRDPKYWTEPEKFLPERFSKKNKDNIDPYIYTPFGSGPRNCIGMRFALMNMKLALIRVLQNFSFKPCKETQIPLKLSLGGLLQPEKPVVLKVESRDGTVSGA
inhibition at 10 µM (CYP3A4),IC50 (sodium channel),SMILES,% Inhibition of CYP3A4 (CYP3A4; at 10 μM)
> 50%,–,"CC(C)NC(=O)N1CCC(CN2C(=O)C3(COc4cc5c(cc43)CCO5)c3ccccc32)C1 (centres unmarked) [11.62, N-(1-methylethyl)-3-[(2′-oxo-5,6-dihydrospiro[benzo[1,2-b:5,4-b′]difuran-3,3′-indol]-1′(2′H)-yl)methyl]pyrrolidine-1-carboxamide]",–
> 50%,0.001 to 0.1 µM,"O=C1N(Cc2cc(Br)cs2)c2ccccc2C12COc1cc3c(cc12)OCO3 (centres unmarked) [Example 1.7, 1′-[(4-bromo-2-thienyl)methyl]spiro[furo[2,3-f][1,3]benzodioxole-7,3′-indol]-2′(1′H)-one]",–
> 50%,0.1 to 1 µM,"COc1cncc(N2C(=O)C3(COc4cc5c(cc43)OCO5)c3ccccc32)c1 (centres unmarked) [Example 1.17, 1′-(5-methoxypyridin-3-yl)spiro[furo[2,3-f][1,3]benzodioxole-7,3′-indol]-2′(1′H)-one]",–
> 50%,1 to 10 µM,"O=C1N(Cc2ccc(C(F)(F)F)o2)c2ccccc2C12COc1cc(Br)ccc12 (centres unmarked) [Example 2.22, 6-bromo-1′-((5-(trifluoromethyl)furan-2-yl)methyl)-2H-spiro[benzofuran-3,3′-indolin]-2′-one]",–
> 50%,0.1 to 1 µM,"O=C1N(Cc2ccc(C(F)(F)F)o2)c2ccccc2C12COc1ccc(Br)cc12 (centres unmarked) [Example 2.23, 5-bromo-1′-((5-(trifluoromethyl)furan-2-yl)methyl)-2H-spiro[benzofuran-3,3′-indolin]-2′-one]",–
> 50%,1 to 10 µM,"O=C1N(C[C@H]2CCCO2)c2ccccc2C12COc1cc3c(cc12)COCO3 (stereo partly drawn) [Example 2.31, 1′-[(2R)-tetrahydrofuran-2-ylmethyl]-4H-spiro[furo[3,2-g][1,3]benzodioxine-6,3′-indol]-2′(1′H)-one]",–
> 50%,0.1 to 1 µM,"COc1ccc(CN2C(=O)C3(COc4cc5c(cc43)OCCO5)c3c2ccc2ncsc32)cc1 (centres unmarked) [Example 2.66, 6′-(4-methoxybenzyl)-2,3-dihydrospiro[furo[2,3-g][1,4]benzodioxine-8,8′-[1,3]thiazolo[5,4-e]indol]-7′(6′H)-one]",–
> 50%,1 to 10 µM,"O=C1Nc2ccccc2C12COc1cc(Br)ccc12 (centres unmarked) [Example 3.2, 6-bromospiro[1-benzofuran-3,3′-indol]-2′(1′H)-one]",–
> 50%,1 to 10 µM,"O=C1Nc2ccccc2C12COc1ccc(F)cc12 (centres unmarked) [Example 3.8, 5-fluoro-spiro[1-benzofuran-3,3′-indol]-2′(1′H)-one]",–
< 50%,1 to 10 µM,"O=C1Nc2ccccc2C12CCOc1cc3c(cc12)CCO3 (centres unmarked) [Example 3.24, 2,3,6,7-tetrahydrospiro[furo[3,2-g]chromene-5,3′-indol]-2′(1′H)-one]",–
< 50%,0.1 to 1 µM,"O=C1Nc2cccc(Br)c2C12COc1cc3c(cc12)OCCO3 (centres unmarked) [Example 3.32, 4′-bromo-2,3-dihydrospiro[furo[2,3-g][1,4]benzodioxine-8,3′-indol]-2′(1′H)-one]",–
< 50%,1 to 10 µM,"O=C1Nc2ccccc2C12COc1cc3c(cc12)S(=O)(=O)C=C3 (centres unmarked) [Example 3.40, spiro[indole-3,3′-thieno[2,3-f][1]benzofuran]-2(1′H)-one 5,5′-dioxide]",–
< 50%,1 to 10 µM,"COCCOc1ccc2c(c1)C1(CO2)C(=O)Nc2ccccc21 (centres unmarked) [Example 3.47, 5-(2-methoxyethoxy)spiro[1-benzofuran-3,3′-indol]-2′(1′H)-one]",–
> 50%,1 to 10 µM,"O=C1Nc2ccc3ncsc3c2C12COc1cc3c(cc12)OCCO3 (centres unmarked) [Example 3.49, 2,3-dihydrospiro[furo[2,3-g][1,4]benzodioxine-8,8′-[1,3]thiazolo[5,4-e]indol]-7′(6′H)-one]",–
< 50%,1 to 10 µM,"COc1cc2c(c(OC)c1)C1(COc3cc4c(cc31)OCCO4)C(=O)N2 (centres unmarked) [Example 3.50, 4′,6′-dimethoxy-2,3-dihydrospiro[furo[2,3-g][1,4]benzodioxine-8,3′-indol]-2′(1′H)-one]",–
> 50%,0.001 to 0.1 µM,"Cn1c(CN2C(=O)C3(COc4cc5c(cc43)CCO5)c3ccccc32)cnc1Cl (centres unmarked) [Example 4.2, 1′-[(2-chloro-1-methyl-1H-imidazol-5-yl)methyl]-5,6-dihydrospiro[benzo[1,2-b:5,4-b′]difuran-3,3′-indol]-2′(1′H)-one]",–
> 50%,0.001 to 0.1 µM,"CC(C)CCN1C(=O)C2(COc3cc4c(cc32)CCO4)c2ccccc21 (centres unmarked) [Example 4.4, 1′-(3-methylbutyl)-5,6-dihydrospiro[benzo[1,2-b:5,4-b′]difuran-3,3′-indol]-2′(1′H)-one]",–
> 50%,–,"CCCCCCN1C(=O)C2(COc3cc4c(cc32)OCCO4)c2ccccc21 (centres unmarked) [Example 7.5, 1′-hexyl-2,3-dihydrospiro[furo[2,3-g][1,4]benzodioxine-8,3′-indol]-2′(1′H)-one]",–
< 50%,–,O=C1N(CCC2CC2)c2ccccc2C12COc1cc3c(cc12)OCCO3 (centres unmarked) [Example 7.6],–
< 50%,–,CCOCCN1C(=O)C2(COc3cc4c(cc32)OCCO4)c2ccccc21 (centres unmarked) [Example 7.7],–
< 50%,–,COCCCN1C(=O)C2(COc3cc4c(cc32)OCCO4)c2ccccc21 (centres unmarked) [Example 7.9],–
< 50%,–,"CN(C)C(=O)c1cccc2c1C1(COc3cc4c(cc31)OCCO4)C(=O)N2C (centres unmarked) [Example 16.78, N,N,1′-trimethyl-2′-oxo-1′,2,2′,3-tetrahydrospiro[furo[2,3-g][1,4]benzodioxine-8,3′-indole]-4′-carboxamide]",–
> 50%,–,"CN1C(=O)C2(COc3cc4c(cc32)OCCO4)c2c(Oc3cccc(N4CCOCC4)c3)cccc21 (centres unmarked) [Example 16.81, 1′-methyl-4′-(3-morpholin-4-ylphenoxy)-2,3-dihydrospiro[furo[2,3-g][1,4]benzodioxine-8,3′-indol]-2′(1′H)-one]",–
< 50%,–,"COc1ccc(Oc2cccc3c2C2(COc4cc5c(cc42)OCCO5)C(=O)N3C)cn1 (centres unmarked) [Example 16.82, 4′-[(6-methoxypyridin-3-yl)oxy]-1′-methyl-2,3-dihydrospiro[furo[2,3-g][1,4]benzodioxine-8,3′-indol]-2′(1′H)-one]",–
> 50%,–,"CN1C(=O)C2(COc3cc4c(cc32)OCCO4)c2c(Oc3ccc4c(c3)OCO4)cccc21 (centres unmarked) [Example 16.83, 4′-(1,3-benzodioxol-5-yloxy)-1′-methyl-2,3-dihydrospiro[furo[2,3-g][1,4]benzodioxine-8,3′-indol]-2′(1′H)-one]",–
> 50%,–,"CN1C(=O)C2(COc3cc4c(cc32)OCCO4)c2c(OCc3ccc(F)cc3)cccc21 (centres unmarked) [Example 16.86, 1′-methyl-4-(4-fluorobenzyloxy)-2,3-dihydrospiro[furo[2,3-g][1,4]benzodioxine-8,3′-indol]-2′(1′H)-one]",–
–,–,"CC(=O)c1cccc2c1C1(COc3cc4c(cc31)OCCO4)C(=O)N2C (centres unmarked) [Example 24, 4′-acetyl-t-methyl-2,3-dihydrospiro[furo[2,3-g][1,4]benzodioxine-8,3′-indol]-2′(1′H)-one]",A (percent inhibition of less than 50% at 10 μM)

SMILES,inhibition at 10 µM (CYP3A4),IC50 (sodium channel),% Inhibition of CYP3A4 (CYP3A4; at 10 μM)
"O=C1N(C[C@H]2CCCO2)c2ccccc2[C@]12COc1cc3c(cc12)CCO3 [Example 11.62, (3S)-1′-[(2R)-tetrahydrofuran-2-ylmethyl]-5,6-dihydrospiro[benzo[1,2-b:5,4-b′]difuran-3,3′-indol]-2′(1′H)-one]",< 50%,–,–
